Tested on: platelets
Experiment: Secretion of PN-2/βAPP from platelets after activation by agonists
Assay type: cell-based
Conditions: freshly washed platelets, 10 minutes
Experimental: Secretion on PN-2/βAPP from platelets after activation by the agonists collagen or thrombin was studied. Briefly, fresh platelets washed by albumin density gradient centrifugation and gel filtration were incubated for 30 minutes at 37° C. in the absence or presence of the combined metabolic inhibitors antimycin A (15 μg/ml), 2-deoxy-D-glucose (30 mM), and D-gluconic acid δ-lactone (10 mM). The platelets were then placed into a cuvette 37° C. water bath with stirring at 1,200 rpm, and collagen (20 μg/ml or α-thrombin U/ml) was added. After 10 minutes, the samples were centrifuged at 12,000×g for 4 minutes and supernatants were collected. Aliquots were removed and quantitated for PN-2/βAPP by incubation with ^125 I-EGF BP and analysis of complex formation by SDS-PAGE and autoradiography as in Example 15. Autoradiograms were aligned with dried gels; ^125 I-EGF BP:PN-2/βAPP complexes were located, excised and quantitated in a […]. Aliquots were also quantitated for platelet markers as follows: total adenine nucleotide (ADP/ATP) secretion was measured by the method of Homsen et al., Anal. Biochem., 46:489 (1972); low affinity platelet factor 4 (LA-PF4) secretion was quantitated by the method of Rucinski et al., Blood, 53:47 (1979); and cytosolic lactate dehydrogenase (LDH) loss was assessed by the procedure of Wroblewski and Ladue, Proc. Soc. Exper. […]

| Substance | secretion of total PN-2/βAPP present in the platelets |
| --- | --- |
| thrombin | approximately one-half |
| collagen | approximately one-half |
